We go through 21 molecules from US9586961B2, “Homopiperazine derivatives as protein tyrosine kinase inhibitors and pharmaceutical use thereof” (LEO PHARMA A/S, priority 2010, dated 2017).

Holding throughout (format): biochemical
The target of one assay is T1, JAK3 (Homo sapiens, UniProt P52333).
T1 construct: All four purified enzymes contain only the catalytic domain; His (N); purchased Carna Biosciences, Inc; host or cells: baculovirus expression system
In words: JAK3 kinase assay (HTRF, inhibition of phosphorylation of a synthetic peptide). As to conditions: catalytic domain, His-tag; 2 μM ATP (Km); read-out: JAK3 kinase inhibitory activity (EC50). On the procedure:
(§1) JAK1, JAK2, JAK3 and TYK2 Kinase Assays:
(§2) Human baculovirus-expressed JAK1, 2, 3 and TYK2 were purchased from Carna Biosciences, Inc. All four purified enzymes contain only the catalytic domain. JAK1 (aa 850-1154) and TYK2 (aa 871-1187) are expressed with an N-terminally fused GST-tag, and JAK2 and JAK3 with an N-terminally fused His-tag. Inhibition of phosphorylation of a synthetic peptide was measured in an HTRF-based assay using the TK substrate-Biotin from the CisbioHTRFKinEASE TK kit. First, 2 μl of TK solution (TK substrate-biotin in kinase buffer [1× enzymatic buffer from HTRFKinEASE TK kit, 1 mM DTT]) is added to a plate containing 1 μl prediluted compound (final assay concentration DMSO: 0.75%). Then, 5 μl kinase-ATP mix (prepared in kinase buffer) is added to the wells and the plates are incubated at RT for 20-30 min. For all four kinases a concentration of ATP that corresponded to the Km for ATP was used. The final concentrations of buffers, substrate, kinase and ATP were: JAK1: 50 mMHepes buffer pH 7.0, 0.01% BSA, 10 mM MgCl2, 1 mM DTT, 7 μM ATP, 50 nMSEB, 1 μM TK Substrate-Biotin and 5 ng JAK1; JAK2: 50 mM Hepes buffer pH 7.0, 0.01% BSA, 5 mM MgCl2, 1 mM DTT, 4 μM ATP, 1 μM TK Substrate-Biotin and 0.1 ng JAK2; JAK3: 50 mMHepes buffer pH 7.0, 0.01% BSA, 5 mM MgCl2, 1 mM DTT, 2 μM ATP, 1 μM TK Substrate-Biotin and 0.3 ng JAK3; TYK2: 50 mMHepes buffer pH 7.0, 0.01% BSA, 5 mM MgCl2, 1 mM DTT, 13 μM ATP, 50 nMSEB, 1 μM TK Substrate-Biotin and 0.8 ng TYK2. Thereafter, the kinase reaction is stopped by adding 4 μl detection mix (final concentrations: 50 mM Hepes buffer pH 7.0, 0.01% BSA, 0.8 M KF, 20 mM EDTA, 42 nM Streptavidin-XL665 and 1:400 STKAbCryptate) and the plates are incubated overnight in the dark. The HTRF signal is read using an Envision plate reader.
Background: In TR-FRET formats the signal depends on donor and acceptor labels being close together.

In another assay the target is T2, JAK2 (Homo sapiens, UniProt O60674).
T2 construct: All four purified enzymes contain only the catalytic domain; His (N); purchased Carna Biosciences, Inc; host or cells: baculovirus expression system
Nature of the assay: JAK2 kinase assay (HTRF, inhibition of phosphorylation of a synthetic peptide). As to conditions: catalytic domain, His-tag; 4 μM ATP (Km); read-out: JAK2 kinase inhibitory activity (EC50). As to the method:
as §1, §2

The target in the next assay is T3, JAK1 (Homo sapiens, UniProt P23458).
T3 construct: JAK1 (aa 850-1154) and TYK2 (aa 871-1187) are expressed with an N-terminally fused GST-tag; GST (N); purchased Carna Biosciences, Inc; host or cells: baculovirus expression system
Nature of the assay: JAK1 kinase assay (HTRF, inhibition of phosphorylation of a synthetic peptide). As to conditions: catalytic domain aa 850-1154, GST-tag; 7 μM ATP (Km); read-out: JAK1 kinase inhibitory activity (EC50). As to the method:
as §1, §2

T1 sequence (P52333 822-1111 limits assumed): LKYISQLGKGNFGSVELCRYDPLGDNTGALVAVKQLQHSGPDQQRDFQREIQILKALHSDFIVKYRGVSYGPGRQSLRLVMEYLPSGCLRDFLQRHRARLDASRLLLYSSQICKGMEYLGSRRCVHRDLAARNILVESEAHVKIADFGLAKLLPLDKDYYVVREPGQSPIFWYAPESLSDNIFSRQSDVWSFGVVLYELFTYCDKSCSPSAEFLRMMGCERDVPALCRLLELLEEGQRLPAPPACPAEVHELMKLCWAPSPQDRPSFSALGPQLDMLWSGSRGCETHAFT
T3 sequence (P23458 850-1154): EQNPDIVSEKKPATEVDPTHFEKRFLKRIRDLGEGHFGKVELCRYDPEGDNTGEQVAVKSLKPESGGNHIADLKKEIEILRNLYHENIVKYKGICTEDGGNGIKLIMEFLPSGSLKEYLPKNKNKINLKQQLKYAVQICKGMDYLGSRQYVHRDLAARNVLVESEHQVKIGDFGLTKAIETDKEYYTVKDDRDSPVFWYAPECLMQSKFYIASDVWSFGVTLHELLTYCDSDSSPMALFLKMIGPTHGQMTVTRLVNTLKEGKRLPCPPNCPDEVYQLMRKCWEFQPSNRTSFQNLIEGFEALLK
T2 sequence (O60674 849-1124 limits assumed): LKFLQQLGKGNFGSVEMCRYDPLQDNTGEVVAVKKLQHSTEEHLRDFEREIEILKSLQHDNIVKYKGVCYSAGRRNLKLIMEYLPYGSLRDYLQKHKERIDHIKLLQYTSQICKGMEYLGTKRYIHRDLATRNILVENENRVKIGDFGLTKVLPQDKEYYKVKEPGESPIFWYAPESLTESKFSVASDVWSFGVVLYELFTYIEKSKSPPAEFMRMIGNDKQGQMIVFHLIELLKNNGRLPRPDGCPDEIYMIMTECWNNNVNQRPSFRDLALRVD

Turning to `O=C(c1cc[nH]n1)N1CCCN(c2ncnc3[nH]ccc23)CC12CC2` [Example 183, 1H-pyrazol-3-yl-[5-(7H-pyrrolo[2,3-d]pyrimidin-4-yl)-5,9-diazaspiro[2.6]nonan-9-yl]methanone], the EC50 at JAK3, at JAK2 and at JAK1 was 100 to 1000 nM throughout.

For `COc1ccc(CC(=O)N2CCN(c3ncnc4[nH]ccc34)CC3(CC3)C2)cc1` [Example 261, 2-(4-methoxyphenyl)-1-[5-(7H-pyrrolo[2,3-d]pyrimidin-4-yl)-5,8-diazaspiro[2.6]nonan-8-yl]ethanone], the EC50 is 100 to 1000 nM at JAK3, below 100 nM at JAK2 and 100 to 1000 nM at JAK1.

For the molecule `Cc1nocc1C(=O)N1CCCN(c2ncnc3[nH]ccc23)CC12CC2` [Example 245, (3-methylisoxazol-4-yl)-[5-(7H-pyrrolo[2,3-d]pyrimidin-4-yl)-5,9-diazaspiro[2.6]nonan-9-yl]methanone], the EC50 at JAK3 is above 1000 nM; at JAK2, 100 to 1000 nM; on JAK1, above 1000 nM.

Take `O=C(c1nc[nH]n1)N1CCCN(c2ncnc3[nH]ccc23)CC12CC2` [Example 228, [5-(7H-pyrrolo[2,3-d]pyrimidin-4-yl)-5,9-diazaspiro[2.6]nonan-9-yl]-(1H-1,2,4-triazol-3-yl)methanone]: the EC50 was above 1000 nM on JAK3, 100 to 1000 nM on JAK2 and 100 to 1000 nM on JAK1.

As to `O=C(c1ccccn1)N1CCN(c2ncnc3[nH]ccc23)CC2(CC2)C1` [Example 188, 2-pyridyl-[5-(7H-pyrrolo[2,3-d]pyrimidin-4-yl)-5,8-diazaspiro[2.6]nonan-8-yl]methanone], the EC50 at JAK3 is above 1000 nM; at JAK2, 100 to 1000 nM; at JAK1, above 1000 nM.

In the case of `Cc1sncc1C(=O)N1CCN(c2ncnc3[nH]ccc23)CC2(CC2)C1` [Example 229, (5-methylisothiazol-4-yl)-[5-(7H-pyrrolo[2,3-d]pyrimidin-4-yl)-5,8-diazaspiro[2.6]nonan-8-yl]methanone], the EC50 on JAK3 was above 1000 nM; on JAK2 it was 100 to 1000 nM; at JAK1, 100 to 1000 nM.

As for `Cc1nonc1CC(=O)N1CCN(c2ncnc3[nH]ccc23)CC2(CC2)C1` [Example 251, 2-(4-methyl-1,2,5-oxadiazol-3-yl)-1-[5-(7H-pyrrolo[2,3-d]pyrimidin-4-yl)-5,8-diazaspiro[2.6]nonan-8-yl]ethanone], the EC50 was 100 to 1000 nM on JAK3, below 100 nM on JAK2 and below 100 nM on JAK1.

Take `c1ccc(CN2CCCN(c3ncnc4[nH]ccc34)CC23CC3)cc1` [Example 280, 4-(9-benzyl-5,9-diazaspiro[2.6]nonan-5-yl)-7H-pyrrolo[2,3-d]pyrimidine]: the EC50 at JAK3 was above 1000 nM; at JAK2, 100 to 1000 nM; on JAK1, above 1000 nM.

Turning to `N#CCCN(CCC#N)C(=O)N1CCN(c2ncnc3[nH]ccc23)CC2(CC2)C1` [Example 225, N,N-bis(2-cyanoethyl)-5-(7H-pyrrolo[2,3-d]pyrimidin-4-yl)-5,8-diazaspiro[2.6]nonane-8-carboxamide], the EC50 is 100 to 1000 nM at JAK3, 100 to 1000 nM at JAK2 and above 1000 nM on JAK1.

For the molecule `Cc1oncc1C(=O)N1CCCN(c2ncnc3[nH]ccc23)CC12CC2` [Example 187, (5-methylisoxazol-4-yl)-[5-(7H-pyrrolo[2,3-d]pyrimidin-4-yl)-5,9-diazaspiro[2.6]nonan-9-yl]methanone], the EC50 at JAK3, on JAK2 and at JAK1 was 100 to 1000 nM each time.

As to `Cc1cnccc1C(=O)N1CCN(c2ncnc3[nH]ccc23)CC2(CC2)C1` [Example 137, (3-methyl-4-pyridyl)-[5-(7H-pyrrolo[2,3-d]pyrimidin-4-yl)-5,8-diazaspiro[2.6]nonan-8-yl]methanone], the EC50 is above 1000 nM on JAK3, 100 to 1000 nM at JAK2 and above 1000 nM on JAK1.

On to `O=C(c1c[nH]cn1)N1CCCN(c2ncnc3[nH]ccc23)CC12CC2` [Example 134, 1H-imidazol-4-yl-[5-(7H-pyrrolo[2,3-d]pyrimidin-4-yl)-5,9-diazaspiro[2.6]nonan-9-yl]methanone], for which the EC50 at JAK3, on JAK2 and on JAK1 was 100 to 1000 nM in each case.

As to `Cc1nnc(C(=O)N2CCCN(c3ncnc4[nH]ccc34)CC23CC3)[nH]1` [Example 257, (5-methyl-4H-1,2,4-triazol-3-yl)-[5-(7H-pyrrolo[2,3-d]pyrimidin-4-yl)-5,9-diazaspiro[2.6]nonan-9-yl]methanone], the values for the EC50 at JAK3, at JAK2 and at JAK1 were above 1000 nM, 100 to 1000 nM and 100 to 1000 nM, respectively.

Take `O=C(CN1C(=O)CSC1=O)N1CCN(c2ncnc3[nH]ccc23)CC2(CC2)C1` [Example 79, 3-[2-oxo-2-[5-(7H-pyrrolo[2,3-d]pyrimidin-4-yl)-5,8-diazaspiro[2.6]nonan-8-yl]ethyl]thiazolidine-2,4-dione]: the EC50 at JAK3, at JAK2 and on JAK1 was below 100 nM in each case.

In the case of `Cc1ccccc1C(=O)N1CCCN(c2ncnc3[nH]ccc23)CC12CC2` [Example 110, o-tolyl-[5-(7H-pyrrolo[2,3-d]pyrimidin-4-yl)-5,9-diazaspiro[2.6]nonan-9-yl]methanone], the EC50 on JAK3 is above 1000 nM; at JAK2, 100 to 1000 nM; at JAK1, 100 to 1000 nM.

With `O=C(c1cnco1)N1CCCN(c2ncnc3[nH]ccc23)CC12CC2` [Example 156, oxazol-5-yl-[5-(7H-pyrrolo[2,3-d]pyrimidin-4-yl)-5,9-diazaspiro[2.6]nonan-9-yl]methanone], the EC50 on JAK3, on JAK2 and on JAK1 was 100 to 1000 nM each time.

Regarding `CC(C)N(C)C(=O)N1CCN(c2ncnc3[nH]ccc23)CC2(CC2)C1` [Example 223, N-isopropyl-N-methyl-5-(7H-pyrrolo[2,3-d]pyrimidin-4-yl)-5,8-diazaspiro[2.6]nonane-8-carboxamide], the EC50 at JAK3, at JAK2 and on JAK1 was 100 to 1000 nM throughout.

As for `O=C(c1ccccn1)N1CCCN(c2ncnc3[nH]ccc23)CC12CC2` [Example 189, 2-pyridyl-[5-(7H-pyrrolo[2,3-d]pyrimidin-4-yl)-5,9-diazaspiro[2.6]nonan-9-yl]methanone], the results for the EC50 at JAK3, on JAK2 and on JAK1 were above 1000 nM, below 100 nM and 100 to 1000 nM, respectively.

With `O=C1OCCN1CC(=O)N1CCCN(c2ncnc3[nH]ccc23)CC12CC2` [Example 86, 3-[2-oxo-2-[5-(7H-pyrrolo[2,3-d]pyrimidin-4-yl)-5,9-diazaspiro[2.6]nonan-9-yl]ethyl]oxazolidin-2-one], the EC50 on JAK3 is above 1000 nM; on JAK2 it was 100 to 1000 nM; at JAK1, above 1000 nM.

As to `Cc1cnccc1C(=O)N1CCCN(c2ncnc3[nH]ccc23)CC12CC2` [Example 138, (3-methyl-4-pyridyl)-[5-(7H-pyrrolo[2,3-d]pyrimidin-4-yl)-5,9-diazaspiro[2.6]nonan-9-yl]methanone], the EC50 was above 1000 nM on JAK3, 100 to 1000 nM on JAK2 and above 1000 nM at JAK1.

In the case of `CN(CC#N)C(=O)N1CCN(c2ncnc3[nH]ccc23)CC2(CC2)C1` [Example 218, N-(cyanomethyl)-N-methyl-5-(7H-pyrrolo[2,3-d]pyrimidin-4-yl)-5,8-diazaspiro[2.6]nonane-8-carboxamide], the results for the EC50 on JAK3, on JAK2 and at JAK1 were 100 to 1000 nM, below 100 nM and 100 to 1000 nM, respectively.

A word on the EC50: it is the concentration at which the effect is half-maximal.
